US12502371B2, “Drug for treating and preventing dementia” (Numan Labo LLC, priority 2019, dated 2025)

Tested on: mice
Assay: Y-maze test in mice given scopolamine
Format: in vivo, mouse
Conditions: based on total motor activity and correct alternation rate, scopolamine-treated mice
Description: The Y-maze test was performed in mice divided into three types A, B, and C. The mice were placed in a Y-maze and allowed to move freely for 6 minutes. The sequence of entries into each arm and the total number of arm entries were measured since mice have the habit of always choosing a new arm of the maze. In order to evaluate the degree of memory impairment, the correct alternation rate was calculated based on the percentage of correct arm entries out of the total number of arm entries. Mice of types A, B, and C received drugs as shown below. […] The total number of entries and percentage of correct alternations were analyzed based on data obtained from the Y-maze test. Four mice from each type were examined. The following animals were used in the experiments. • Species: mouse • Strain: Crj:ICR • Sex: male • Age in weeks: 4

COc1ccccc1OCC(O)COC(N)=O (stereo not shown) [Methocarbamol, methocarbamol]
Effect on cognitive function (in words): had the effect of improving cognitive function
